This is an account of results in publication PMC7659177 (ACS omega, 2020).

The test has as its target IP3R1 (HEK-IP3R1 cells) (Rattus norvegicus, UniProt P29994). Briefly: Ca2+ release from stores of permeabilized cells, Mag-fluo […]. Format: cell-based.

Each structure is given as a SMILES string. pEC50: −log10 of the molar value.

Sequence of IP3R1 (HEK-IP3R1 cells) (P29994 whole entry): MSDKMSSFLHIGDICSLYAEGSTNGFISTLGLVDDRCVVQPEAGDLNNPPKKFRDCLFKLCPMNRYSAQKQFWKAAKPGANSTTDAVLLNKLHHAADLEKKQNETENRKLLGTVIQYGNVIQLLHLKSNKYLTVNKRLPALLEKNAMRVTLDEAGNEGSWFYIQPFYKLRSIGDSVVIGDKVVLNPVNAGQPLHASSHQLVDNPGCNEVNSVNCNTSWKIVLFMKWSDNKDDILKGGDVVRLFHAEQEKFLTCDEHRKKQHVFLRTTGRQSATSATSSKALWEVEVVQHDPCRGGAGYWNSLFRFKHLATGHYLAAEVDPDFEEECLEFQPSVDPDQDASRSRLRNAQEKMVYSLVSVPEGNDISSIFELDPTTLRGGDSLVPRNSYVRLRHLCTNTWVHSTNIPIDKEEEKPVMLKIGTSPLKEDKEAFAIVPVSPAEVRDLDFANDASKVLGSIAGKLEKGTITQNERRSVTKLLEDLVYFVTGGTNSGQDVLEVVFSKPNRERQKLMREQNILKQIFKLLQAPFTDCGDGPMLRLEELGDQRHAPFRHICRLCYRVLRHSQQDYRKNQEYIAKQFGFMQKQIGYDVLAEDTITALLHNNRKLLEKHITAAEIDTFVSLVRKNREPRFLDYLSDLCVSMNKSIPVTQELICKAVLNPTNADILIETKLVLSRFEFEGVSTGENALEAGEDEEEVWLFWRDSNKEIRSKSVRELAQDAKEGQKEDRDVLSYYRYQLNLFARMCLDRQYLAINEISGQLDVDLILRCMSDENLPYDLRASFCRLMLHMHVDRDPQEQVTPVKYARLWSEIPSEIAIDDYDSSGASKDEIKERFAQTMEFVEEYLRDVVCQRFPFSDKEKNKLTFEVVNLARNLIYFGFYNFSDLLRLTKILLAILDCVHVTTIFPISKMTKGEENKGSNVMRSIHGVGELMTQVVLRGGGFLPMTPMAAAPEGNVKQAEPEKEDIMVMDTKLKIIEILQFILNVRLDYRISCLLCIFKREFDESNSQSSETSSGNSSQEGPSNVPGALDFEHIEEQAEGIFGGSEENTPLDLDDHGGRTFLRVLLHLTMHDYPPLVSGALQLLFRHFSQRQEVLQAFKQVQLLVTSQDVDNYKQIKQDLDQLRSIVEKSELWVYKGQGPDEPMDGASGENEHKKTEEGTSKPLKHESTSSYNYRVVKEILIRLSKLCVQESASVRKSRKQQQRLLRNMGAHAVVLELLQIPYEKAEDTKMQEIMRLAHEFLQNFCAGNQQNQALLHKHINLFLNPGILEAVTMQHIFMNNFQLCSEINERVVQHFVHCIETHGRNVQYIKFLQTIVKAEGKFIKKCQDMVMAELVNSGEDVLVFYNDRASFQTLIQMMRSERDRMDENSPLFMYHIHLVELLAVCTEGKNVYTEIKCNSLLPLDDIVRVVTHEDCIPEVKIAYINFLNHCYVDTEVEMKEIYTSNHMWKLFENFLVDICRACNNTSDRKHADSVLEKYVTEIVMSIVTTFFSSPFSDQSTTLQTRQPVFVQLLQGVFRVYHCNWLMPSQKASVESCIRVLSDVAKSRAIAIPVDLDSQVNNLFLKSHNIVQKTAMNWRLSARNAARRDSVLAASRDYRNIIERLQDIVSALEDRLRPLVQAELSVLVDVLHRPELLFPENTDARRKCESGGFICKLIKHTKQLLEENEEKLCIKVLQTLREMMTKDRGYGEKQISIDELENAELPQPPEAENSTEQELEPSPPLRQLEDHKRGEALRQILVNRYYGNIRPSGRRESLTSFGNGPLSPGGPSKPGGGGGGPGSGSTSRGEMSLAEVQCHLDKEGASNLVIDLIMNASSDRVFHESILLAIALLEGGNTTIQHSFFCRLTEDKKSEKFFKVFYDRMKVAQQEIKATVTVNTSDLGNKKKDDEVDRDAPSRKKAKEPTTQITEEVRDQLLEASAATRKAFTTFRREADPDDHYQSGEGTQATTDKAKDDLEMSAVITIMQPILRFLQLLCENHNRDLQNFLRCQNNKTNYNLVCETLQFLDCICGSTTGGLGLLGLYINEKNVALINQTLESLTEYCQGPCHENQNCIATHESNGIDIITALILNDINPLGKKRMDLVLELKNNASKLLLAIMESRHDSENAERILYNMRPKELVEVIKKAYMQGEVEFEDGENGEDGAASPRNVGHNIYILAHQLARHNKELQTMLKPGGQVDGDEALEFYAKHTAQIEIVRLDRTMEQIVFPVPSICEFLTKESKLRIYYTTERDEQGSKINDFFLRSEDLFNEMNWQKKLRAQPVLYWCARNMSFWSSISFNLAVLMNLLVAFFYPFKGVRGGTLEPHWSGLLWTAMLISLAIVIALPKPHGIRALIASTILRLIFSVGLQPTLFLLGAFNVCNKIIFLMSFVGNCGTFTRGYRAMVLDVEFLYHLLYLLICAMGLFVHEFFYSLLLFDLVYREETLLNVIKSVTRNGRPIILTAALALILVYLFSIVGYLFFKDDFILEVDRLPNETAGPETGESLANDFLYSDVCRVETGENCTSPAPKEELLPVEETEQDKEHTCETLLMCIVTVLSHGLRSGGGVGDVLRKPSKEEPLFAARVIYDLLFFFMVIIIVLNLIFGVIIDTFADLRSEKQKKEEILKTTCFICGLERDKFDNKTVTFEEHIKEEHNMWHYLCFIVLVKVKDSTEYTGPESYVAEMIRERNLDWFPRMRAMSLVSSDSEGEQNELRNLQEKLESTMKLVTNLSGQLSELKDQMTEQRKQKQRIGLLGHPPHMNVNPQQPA

The term pEC50 denotes the negative decadic logarithm of the EC50, by convention in mol/L. A high value points to a small EC50. Turning to `Nc1ncnc2c1ncn2[C@@H]1O[C@H](CO)[C@@H](O[C@H]2[C@H](O)[C@H](O)[C@@H](OP(=O)(O)O)[C@H](OP(=O)(O)O)[C@H]2O)[C@H]1OP(=O)(O)O` [compound 5, 3' -O-(1″ -D-chiro-Inosityl)adenosine 2’, 3″, 4″ -trisphosphate], the pEC50 was 7.66.
